Legend:
Assay in all cases: OR transcript level by RT-qPCR after in vivo odorant exposure
Set-up in all cases: species or system mouse; key: The transcript downregulation of 21 out of the 26 olfactory receptor candidates obtained by RNAseq was confirmed by qPCR; false RNAseq positive candidates, namely OR candidates for which in fact mRNA was not downregulated following acetophenone exposure
Conditions in all cases: 5% acetophenone exposure
olfr1135 = test system: olfr1135
Procedure: (§1) In vivo exposure to odorant: Starting 48 h before experiments, mice were habituated to pure DMSO on a cotton ball. 200 μl were pipetted directly onto the cotton and placed in the cage, replacing any cotton that was already in the cage for nest-making purposes.
(§2) On the day of the experiment, mice receiving odorants were transferred to a different room, where they were exposed to a cotton ball on which 200 μl of odorant diluted in pure DMSO were deposited. Exposures started in the morning between 8 and 10 am (that is two hours after lights were on) and mice were killed and dissected between 1 and 3 pm. […] If a number of different odorants were tested in the same experiment, a different overpressurized room would always be used for each odorant to avoid odor cross-contamination.
(§3) After odorant exposure, mice were killed by cervical dislocation and immediately decapitated. The main olfactory epithelia (MOE), were harvested in their entirety and transferred to a tube containing 600 μl of lysis buffer and β-mercaptoethanol (RNAeasy kit, Qiagen, following the manufacturer protocol) and a 0.5 cm diameter steel ball, and then put on ice. Samples were then homogenized using a FastPrep®-24 instrument (MP Biomedicals) at 6 m/s for 30 s and left on ice. RNA extraction was performed on all samples in parallel using the Qiagen RNeasy Mini® kit following the manufacturer's instructions. Two DNase treatments were performed on all samples: first using the Qiagen RNase-Free DNase Set® and then using the Life Technologies Ambion DNase I® kit. RNA samples were then aliquoted and stored at −80° C.
(§4) RNA concentrations were determined using an Amersham Ultrospec® 3100 Pro spectrophotometer, and RNA quality was evaluated with an Agilent Technologies 2100 Bioanalyzer®. Each reverse transcription was performed with 0.5 μg RNA using the Takara Primescript® kit, in a final volume of 10 μl. Primers for reverse transcription were equal mixtures of poly-T nucleotides and random hexamers. Negative controls (omitting the reverse transcriptase enzyme) were performed for each sample. 1/14th of the cDNA preparation was used for each triplicated qPCR reaction.
(§5) qPCR Ct values were analyzed using an in-house developed Microsoft Excel® macro file. Triplicate values were compared and outliers (values with a difference higher than 0.5 Ct to their nearest neighbor) were discarded. The number of conditions with an outlying value was always less than 10% of the total number of conditions. Ct values were converted to quantities relative to the maximum for each given gene. Selected reference genes were then analyzed for variance using the geNorm algorithm. All values were normalized with the olfactory tissue-specific genes Omp and Adcy3. β-Actin was used as a non-tissue-specific reference gene to control for differences in dissection between samples.
(§6) Mice (n=6) were exposed to 5% acetophenone or to a “neutral” control condition for 5 hours. An olfactory cDNA library corresponding to each animal was deep sequenced and the ratios of odorant receptor mRNA concentrations relative to controls were plotted (FIG. 3). […] Based on transcriptional downregulation levels observed by RNAseq following acetophenone exposure, a list of 26 candidate responsive ORs was determined (FIG. 3), that reached 74% decrease (Olfr145) or even over 80% (Olfr169) relative to controls. […] The transcript downregulation of 21 out of the 26 olfactory receptor candidates obtained by RNAseq was confirmed by qPCR.

olfr229 = test system: olfr229
Procedure: as §1, §2, §3, §4, §5, §6

olfr47 = test system: olfr47
Procedure: as §1, §2, §3, §4, §5, §6

olfr30 = test system: olfr30
Procedure: as §1, §2, §3, §4, §5, §6

olfr1501 = test system: olfr1501
Procedure: as §1, §2, §3, §4, §5, §6

olfr1054 = test system: olfr1054
Procedure: as §1, §2, §3, §4, §5, §6

olfr935 = test system: olfr935
Procedure: as §1, §2, §3, §4, §5, §6

olfr736 = test system: olfr736
Procedure: as §1, §2, §3, §4, §5, §6

olfr750 = test system: olfr750
Procedure: as §1, §2, §3, §4, §5, §6

olfr378 = test system: olfr378
Procedure: as §1, §2, §3, §4, §5, §6

olfr1448 = test system: olfr1448
Procedure: as §1, §2, §3, §4, §5, §6

olfr109 = test system: olfr109
Procedure: as §1, §2, §3, §4, §5, §6

For `CC(=O)c1ccccc1` [acetophenone], the “olfr1135 candidate OR (RNAseq) confirmed by qPCR” value (olfr1135) was “n”, the “olfr229 candidate OR (RNAseq) confirmed by qPCR” value (olfr229) was “y” and the “olfr47 candidate OR (RNAseq) confirmed by qPCR” value (olfr47) was “y”. The “olfr30 candidate OR (RNAseq) confirmed by qPCR” value (olfr30) was “y”, the “olfr1501 candidate OR (RNAseq) confirmed by qPCR” value (olfr1501) was “y” and the “olfr1054 candidate OR (RNAseq) confirmed by qPCR” value (olfr1054) was “y”. For the same compound, the “olfr935 candidate OR (RNAseq) confirmed by qPCR” value (olfr935) was “y”, the “olfr736 candidate OR (RNAseq) confirmed by qPCR” value (olfr736) was “y” and the “olfr750 candidate OR (RNAseq) confirmed by qPCR” value (olfr750) was “n”. The “olfr378 candidate OR (RNAseq) confirmed by qPCR” value (olfr378) was “n”, the “olfr1448 candidate OR (RNAseq) confirmed by qPCR” value (olfr1448) was “y” and the “olfr109 candidate OR (RNAseq) confirmed by qPCR” value (olfr109) was “y”.
